In patent US12312343B2, “Rotomeric isomers of 4-alkyl-5-heteroaryl-3H-1,2-dithiole-3-thiones” (ST IP HOLDING AG, priority 2018, dated 2025):

Experiments:
[1] = test system: GPX1; assay: Human oxidative stress RT2 Profiler PCR array in HGEPp cells: GPX1; type: cell-based; conditions: 100 μg/ml, 24 h, RT-PCR ΔΔCt
Experimental: (§1) RT-PCR was performed on an iCycler.

[2] = test system: GCLC; assay: Human oxidative stress RT2 Profiler PCR array in HGEPp cells: GCLC; type: cell-based; conditions: 100 μg/ml, 24 h, RT-PCR ΔΔCt
Experimental: as §1

[3] = test system: SOD1; assay: Human oxidative stress RT2 Profiler PCR array in HGEPp cells: SOD1; type: cell-based; conditions: 100 μg/ml, 24 h, RT-PCR ΔΔCt
Experimental: as §1

[4] = test system: HGEPp cells; assay: ROS production in H2O2-induced oxidatively stressed HGEPp cells; conditions: HGEPp cells pretreated 24 hrs at 100 μg/mL, then 0.3 mM H2O2 for 4 h; positive control 139%
[5] = test system: NQO1; assay: Human oxidative stress RT2 Profiler PCR array in HGEPp cells: NQO1; type: cell-based; conditions: 100 μg/ml, 24 h, RT-PCR ΔΔCt
Experimental: as §1

[6] = test system: PTGS1; assay: Human oxidative stress RT2 Profiler PCR array in HGEPp cells: PTGS1; type: cell-based; conditions: 100 μg/ml, 24 h, RT-PCR ΔΔCt
Experimental: as §1

[7] = test system: GTF2i; assay: Human oxidative stress RT2 Profiler PCR array in HGEPp cells: GTF2i; type: cell-based; conditions: 100 μg/ml, 24 h, RT-PCR ΔΔCt
Experimental: as §1

[8] = test system: PRDX2; assay: Human oxidative stress RT2 Profiler PCR array in HGEPp cells: PRDX2; conditions: 100 μg/ml, 24 h, RT-PCR ΔΔCt
Experimental: (§2) Pooled primary HGEPp cells were propagated in CnT-Prime epithelial culture medium provided by CellnTec on 100 mm petri dishes coated with 30 mg/ml Type I rat tail collagen (BD Biosciences) diluted in Dulbecco's phosphate-buffered saline (DPBS). HGEPp cells were grown in 12×60 mm Nunc™ Cell Culture dishes at a 2.5×10^4 cells/cm2 density concentration.
(§3) All dosing solutions contained 0.3% of DMSO which is well below the maximum tolerated DMSO percent of 0.8% for HGEPp cells.
(§4) The cDNA from above was mixed with the RT2 SYBR Green fluor Mastermix and aliquoted into the wells of the RT2 Profiler PCR Array. RT-PCR was performed on an iCycler. Gene expression was compared using Ct values and the results were calculated using ΔΔ Ct method with normalization to the average expression levels of the five common genes (ACTB, B2M, GAPDH, HPRT, and RPL13A).

[9] = test system: GSTP1; assay: Human oxidative stress RT2 Profiler PCR array in HGEPp cells: GSTP1; type: cell-based; conditions: 100 μg/ml, 24 h, RT-PCR ΔΔCt
Experimental: as §1

[10] = test system: UCP2; assay: Human oxidative stress RT2 Profiler PCR array in HGEPp cells: UCP2; type: cell-based; conditions: 100 μg/ml, 24 h, RT-PCR ΔΔCt
Experimental: as §1

[11] = test system: GCLM; assay: Human oxidative stress RT2 Profiler PCR array in HGEPp cells: GCLM; type: cell-based; conditions: 100 μg/ml, 24 h, RT-PCR ΔΔCt
Experimental: as §1

[12] = test system: GPX4; assay: Human oxidative stress RT2 Profiler PCR array in HGEPp cells: GPX4; conditions: 100 μg/ml, 24 h, RT-PCR ΔΔCt
Experimental: as §2, §3, §4

[13] = test system: ALOX12; assay: Human oxidative stress RT2 Profiler PCR array in HGEPp cells: ALOX12; type: cell-based; conditions: 100 μg/ml, 24 h, RT-PCR ΔΔCt
Experimental: as §1

[14] = test system: MPO; assay: Human oxidative stress RT2 Profiler PCR array in HGEPp cells: MPO; conditions: 100 μg/ml, 24 h, RT-PCR ΔΔCt
Experimental: as §2, §3, §4

Row | Substance | GPX1 up regulation relative fold change [1] [fold] | GCLC up regulation relative fold change [2] | SOD1 up regulation relative fold change [3] | ROS level (optical density, Normal = 100% baseline) [4] [%] | NQO1 up regulation relative fold change [5] | PTGS1 down regulation relative fold change [6] [fold] | GTF2i down regulation relative fold change [7] [fold] | PRDX2 down regulation relative fold change [8] [fold] | GSTP1 up regulation relative fold change [9] | UCP2 down regulation relative fold change [10] [fold] | GCLM up regulation relative fold change [11] | GPX4 up regulation relative fold change [12] [fold] | ALOX12 up regulation relative fold change [13] [fold] | MPO up regulation relative fold change [14] [fold] | GCLC up regulation relative fold change ([2]; listed as Ex. 9) [fold] | SOD1 up regulation relative fold change ([3]; listed as Ex. 9) [fold] | NQO1 up regulation relative fold change ([5]; listed as Ex. 9) [fold] | GSTP1 up regulation relative fold change ([9]; listed as Ex. 9) [fold] | GCLM up regulation relative fold change ([11]; listed as Ex. 9) [fold]
1 | diethyl dithiophosphate complex of oltipraz [Example 7] | 4.72 | 4.41 fold | 4.85 fold | 117 | 3.93 fold | 0.21 | 0.29 | 0.28 | 3.13 fold | 0.17 | 3.00 fold | 2.99 | 6.38 | 3.42 |  |  |  |  | 
2 | benzoyl chloride complex of oltipraz [Example 6] | 4.43 | 3.31 fold | 3.92 fold | 131 | 3.17 fold | 0.28 | 0.36 | 0.31 | 2.74 fold | 0.28 | 2.25 fold | 2.91 | 5.93 | 3.05 |  |  |  |  | 
3 | thiobenzoic acid complex of oltipraz [Example 11] | 4.82 | 4.46 fold | 4.96 fold | 116 | 4.09 fold | 0.22 | 0.29 | 0.27 | 3.07 fold | 0.15 | 3.08 fold | 2.94 | 6.39 | 3.44 |  |  |  |  | 
4 | Diethyl Thiophosphate Complex of Oltipraz [Example 8] | 4.81 | 4.39 fold | 4.86 fold | 115 | 3.92 fold | 0.23 | 0.29 | 0.28 | 3.08 fold | 0.14 | 3.02 fold | 3.02 | 6.41 | 3.47 |  |  |  |  | 
5 | dimethyl phosphate complex of N-methyl oltipraz [Example 9] | 4.89 | significantly higher up-regulation | significantly higher up-regulation | 112 | significantly higher up-regulation | 0.21 | 0.28 | 0.27 | significantly higher up-regulation | 0.15 | significantly higher up-regulation | 2.93 | 6.43 | 3.41 | 4.60 | 5.22 | 4.24 | 3.16 | 3.15
